Test results as given in US8399493B2, “Pyridinone derivatives and their use as positive allosteric modulators of mGluR2-receptors” (Janssen Pharmaceuticals, Inc., priority 2004, dated 2013).

Molecule `O=c1ccc(-c2ccoc2)cn1Cc1ccc(Cl)cc1` [2-59] has a melting point of 112 to 114 °C.
With `Cc1ccc(-c2ccc(=O)n(Cc3ccc(Cl)cc3)c2)s1` [2-60] the melting point was 101 °C.
`COc1ccc(-c2ccc(=O)n(Cc3ccc(Cl)cc3)c2)cn1` [2-62] gave a melting point of 191 °C.
Work on `O=c1ccc(-c2ccc(Cl)nc2)cn1Cc1ccc(Cl)cc1` [2-63] yielded a melting point of 169 °C.
In the case of `CN(C)c1ccc(-c2ccc(=O)n(Cc3ccc(Cl)cc3)c2)cn1` [2-64], the melting point is reported as 164 °C.
`O=c1ccc(-c2ccc(N3CCOCC3)nc2)cn1Cc1ccc(Cl)cc1` [2-65] showed a melting point of 154 °C.
With `COc1ncc(-c2ccc(=O)n(Cc3ccc(Cl)cc3)c2)cn1` [2-66] the melting point was 191 °C.
Molecule `Cn1ccc2cc(-c3ccc(=O)n(Cc4ccc(Cl)cc4)c3)ccc21` [2-68] has a melting point of 144 to 147 °C.
`O=c1ccc(-c2ccc3c(c2)CCO3)cn1Cc1ccc(Cl)cc1` [2-69] gave a melting point of 119 °C.
With `O=c1ccc(-c2cnc3ccccc3c2)cn1Cc1ccc(Cl)cc1` [2-70] the melting point was 165 °C.
`O=c1ccc(-c2ccc3cccnc3c2)cn1Cc1ccc(Cl)cc1` [2-71] showed a melting point of 261 °C.
Molecule `O=c1ccc(-c2ccc3nccnc3c2)cn1Cc1ccc(Cl)cc1` [2-72] has a melting point of 120 °C.
Molecule `CN(Cc1ccc(=O)n(Cc2ccc(Cl)cc2)c1)c1ccccc1` [3-07, 1-(4-Chlorobenzyl)-5-((methyl(phenyl)amino)methyl)pyridin-1-2(1H)-one] has a melting point of 106 °C.
`COc1cccc(C(O)c2ccc(=O)n(Cc3ccc(Cl)cc3)c2)c1` (stereo not drawn) [3-10, 1-(4-Chlorobenzyl)-5-(hydroxy(3-methoxyphenyl)methyl)pyridin-2(1H)-one] gave a melting point of 120 °C.
`COc1cccc(C(=O)c2ccc(=O)n(Cc3ccc(Cl)cc3)c2)c1` [3-12, 1-(4-Chlorobenzyl)-5-(3-methoxybenzoyl)pyridin-2(1H)-one] gave a melting point of 104 °C.
For `COc1ccc(-c2ccc(=O)n(Cc3ccccc3C)c2)cc1` [4-05], the melting point was 122 °C.
`COc1ccc(-c2ccc(=O)n(Cc3ccc(C)cc3)c2)cc1` [4-06] showed a melting point of 123 to 124 °C.
With `COc1ccc(-c2ccc(=O)n(Cc3ccc(C(F)(F)F)cc3)c2)cc1` [4-07] the melting point was 131 to 132 °C.
With `COc1ccc(-c2ccc(=O)n(Cc3cccc(F)c3)c2)cc1` [4-09] the melting point was 89 °C.
`COc1ccc(-c2ccc(=O)n(Cc3ccc(F)cc3)c2)cc1` [4-10] gave a melting point of 103 °C.
Molecule `COc1ccc(-c2ccc(=O)n(Cc3ccc(F)cc3F)c2)cc1` [4-12] has a melting point of 109 °C.
`COc1ccc(-c2ccc(=O)n(Cc3cccc(F)c3F)c2)cc1` [4-13] showed a melting point of 71 °C.
Work on `COc1ccc(-c2ccc(=O)n(Cc3c(F)cc(F)cc3F)c2)cc1` [4-17] yielded a melting point of 112 °C.
In the case of `COc1ccc(-c2ccc(=O)n(Cc3ccccc3Cl)c2)cc1` [4-18], the melting point is reported as 125 °C.
`COc1ccc(Cn2cc(-c3ccc(OC)cc3)ccc2=O)cc1` [4-23] showed a melting point of 103 °C.
`COCc1ccc(Cn2cc(-c3ccc(OC)cc3)ccc2=O)cc1` [4-25, 1-(4-(Methoxymethyl)benzyl)-5-(4-methoxyphenyl)pyridin-2(1H)-one] gave a melting point of 72 °C.
Work on `COC(=O)c1ccc(Cn2cc(-c3ccc(OC)cc3)ccc2=O)cc1` [4-27] yielded a melting point of 147 to 150 °C.
`COc1ccc(-c2ccc(=O)n(Cc3cccc(C#N)c3)c2)cc1` [4-29] showed a melting point of 165 °C.
In the case of `COc1ccc(-c2ccc(=O)n(Cc3ccc(C#N)cc3)c2)cc1` [4-30], the melting point is reported as 119 to 120 °C.
For `COc1ccc(-c2ccc(=O)n(Cc3ccc(OC(F)(F)F)cc3)c2)cc1` [4-31], the melting point was 130 °C.
Molecule `COc1ccc(-c2ccc(=O)n(Cc3ccc([N+](=O)[O-])cc3)c2)cc1` [4-33] has a melting point of 95 °C.
`COc1ccc(-c2ccc(=O)n(Cc3ccc(C(F)(F)F)cc3F)c2)cc1` [4-34] showed a melting point of 131 to 134 °C.
`COc1ccc(-c2ccc(=O)n(Cc3ccc(C(F)(F)F)c(F)c3)c2)cc1` [4-35] gave a melting point of 82 to 84 °C.
Work on `COc1ccc(-c2ccc(=O)n(Cc3ccc(C)c(F)c3)c2)cc1` [4-36] yielded a melting point of 98 to 100 °C.
In the case of `COc1ccc(-c2ccc(=O)n(Cc3ccc4ccccc4c3)c2)cc1` [4-38], the melting point is reported as 145 to 148 °C.
Work on `COc1ccc(-c2ccc(=O)n(Cc3ccc(C(F)(F)F)o3)c2)cc1` [4-39] yielded a melting point of 120 °C.
`COc1ccc(-c2ccc(=O)n(Cc3cc(C)on3)c2)cc1` [4-40] showed a melting point of 100 to 102 °C.
`COc1ccc(-c2ccc(=O)n(Cc3noc(-c4ccccc4)n3)c2)cc1` [4-41] gave a melting point of 104 °C.
For `COc1ccc(-c2ccc(=O)n(Cc3nc(-c4ccc(F)cc4)no3)c2)cc1` [4-42, 1-((3-(4-Fluorophenyl)-1,2,4-oxadiazol-5-yl)methyl)-5-(4-methoxyphenyl)pyridin-2(1H)-one], the melting point was 123 °C.
Molecule `COc1ccc(-c2ccc(=O)n(Cc3ccc(Cl)nc3)c2)cc1` [4-44] has a melting point of 135 °C.
`CCc1ccc(Cn2cc(-c3ccc(OC)cc3)ccc2=O)cn1` [4-45, 1-((6-Ethylpyridin-3-yl)methyl)-5-(4-methoxyphenyl)pyridin-2(1H)-one] gave a melting point of 130 °C.
With `COc1ccc(-c2ccc(=O)n(Cc3nc4cc(F)ccc4o3)c2)cc1` [4-51, 1-((5-Fluorobenzo[d]oxazol-2-yl)methyl)-5-(4-methoxyphenyl)-pyridin-2(1H)-one] the melting point was 115 °C.
`COc1ccc(-c2ccc(=O)n(Cc3cnc(C)s3)c2)cc1` [4-52] gave a melting point of 127 to 130 °C.
`COc1ccc(-c2ccc(=O)n(Cc3nc4ccccc4s3)c2)cc1` [4-53] showed a melting point of 121 °C.
`COc1ccc(-c2ccc(=O)n(Cc3nc4c(F)cccc4s3)c2)cc1` [4-54] gave a melting point of 126 °C.
Work on `Cc1ccc(-c2ccc(=O)n(Cc3cccc(F)c3)c2)cc1` [6-04] yielded a melting point of 112 to 113 °C.
With `COCc1ccc(-c2ccc(=O)n(Cc3ccc(F)c(F)c3)c2)cc1` [6-11] the melting point was 85 °C.
For `CC(=O)c1ccc(-c2ccc(=O)n(Cc3ccc(F)c(F)c3)c2)cc1` [6-12], the melting point was 142 °C.
In the case of `N#Cc1ccc(-c2ccc(=O)n(Cc3ccc(F)c(F)c3)c2)cc1` [6-13], the melting point is reported as 139 °C.
`O=c1ccc(-c2cccs2)cn1Cc1ccc(F)c(F)c1` [6-15] showed a melting point of 96 °C.
`O=c1ccc(-c2ccc3c(c2)CCO3)cn1Cc1ccc(F)c(F)c1` [6-17] gave a melting point of 99 °C.
In the case of `O=c1ccc(-c2ccc3c(c2)OCO3)cn1Cc1ccc(F)c(F)c1` [6-18], the melting point is reported as 181 °C.
For `O=c1ccc(-c2nc3ccccc3s2)cn1Cc1ccc(Cl)c(F)c1` [6-19, 1-(4-Chloro-3-fluorobenzyl)-5-(benzo[d]thiazol-2-yl)pyridin-2(1H)-one], the melting point was 164 °C.
For `O=c1ccc(Br)cn1Cc1ccc(Cl)cc1F` [6-20], the melting point was 102 °C.
Work on `O=c1ccc(-c2ccc(O)cc2)cn1Cc1ccc(Cl)cc1F` [6-21] yielded a melting point of 224 °C.
In the case of `Nc1cccc(-c2ccc(=O)n(Cc3ccc(Cl)cc3F)c2)c1` [6-22], the melting point is reported as 70 °C.
For `NCc1ccc(-c2ccc(=O)n(Cc3ccc(Cl)cc3F)c2)cc1` [6-24], the melting point was 139 °C.
For `N#Cc1cccc(-c2ccc(=O)n(Cc3ccc(Cl)cc3F)c2)c1` [6-25], the melting point was 140 °C.
Work on `O=c1ccc(-c2ccc(CO)cc2)cn1Cc1ccc(Cl)cc1F` [6-26] yielded a melting point of 176 °C.
For `O=c1ccc(-c2ccc(C(F)(F)F)cc2)cn1Cc1ccc(Cl)cc1F` [6-27], the melting point was 127 °C.
`COc1ccc(-c2ccc(=O)n(Cc3ccc(Cl)cc3F)c2)cc1C` [6-28] showed a melting point of 104 °C.
For `COc1ccc(-c2ccc(=O)n(Cc3ccc(Cl)cc3F)c2)cc1OC` [6-31], the melting point was 141 °C.
`CCCOc1ccc(-c2ccc(=O)n(Cc3ccc(Cl)cc3F)c2)cc1` [6-32] gave a melting point of 107 °C.
`CC(C)COc1ccc(-c2ccc(=O)n(Cc3ccc(Cl)cc3F)c2)cc1` [6-33] showed a melting point of 88 °C.
For `COCCOc1ccc(-c2ccc(=O)n(Cc3ccc(Cl)cc3F)c2)cc1` [6-36], the melting point was 90 °C.
With `O=c1ccc(-c2ccc(OCc3ccco3)cc2)cn1Cc1ccc(Cl)cc1F` [6-37] the melting point was 114 °C.
Work on `COC(=O)Oc1ccc(-c2ccc(=O)n(Cc3ccc(Cl)cc3F)c2)cc1` [6-39, 4-(1-(4-Chloro-2-fluorobenzyl)-6-oxo-1,6-dihydropyridin-3-yl)phenyl methyl carbonate] yielded a melting point of 124 °C.
`CC(=O)COc1ccc(-c2ccc(=O)n(Cc3ccc(Cl)cc3F)c2)cc1` [6-40, 1-(4-Chloro-2-fluorobenzyl)-5-(4-(2-oxopropoxy)phenyl)pyridin-2(1H)-one] showed a melting point of 127 °C.
Molecule `COC(=O)COc1ccc(-c2ccc(=O)n(Cc3ccc(Cl)cc3F)c2)cc1` [6-41] has a melting point of 119 °C.
Molecule `NCCOc1ccc(-c2ccc(=O)n(Cc3ccc(Cl)cc3F)c2)cc1` [6-42] has a melting point of 226 °C.
Work on `NCCCOc1ccc(-c2ccc(=O)n(Cc3ccc(Cl)cc3F)c2)cc1` [6-43] yielded a melting point of 253 °C.
In the case of `CN(C)CCOc1ccc(-c2ccc(=O)n(Cc3ccc(Cl)cc3F)c2)cc1` [6-44], the melting point is reported as 85 °C.
Molecule `CN(C)CCCOc1ccc(-c2ccc(=O)n(Cc3ccc(Cl)cc3F)c2)cc1` [6-45] has a melting point of 104 °C.
For `N#CCOc1ccc(-c2ccc(=O)n(Cc3ccc(Cl)cc3F)c2)cc1` [6-46, 2-(4-(1-(4-Chloro-2-fluorobenzyl)-6-oxo-1,6-dihydropyridin-3-yl)-phenoxy)acetonitrile], the melting point was 160 °C.
`O=c1ccc(-c2ccc(OCCCN3CCOCC3)cc2)cn1Cc1ccc(Cl)cc1F` [6-48] showed a melting point of 153 °C.
`COc1ccc(-c2ccc(=O)n(Cc3ccc(Cl)cc3F)c2)cn1` [6-51, 1-(4-Chloro-2-fluorobenzyl)-5-(6-methoxypyridin-3-yl)pyridin-2(1H)-one] showed a melting point of 136 °C.
Molecule `CNC(=O)COc1ccc(-c2ccc(=O)n(Cc3ccc(Cl)cc3F)c2)cc1` [6-52] has a melting point of 162 °C.
With `CC(=O)NCCOc1ccc(-c2ccc(=O)n(Cc3ccc(Cl)cc3F)c2)cc1` [6-53, N-(2-(4-(1-(4-Chloro-2-fluorobenzyl)-6-oxo-1,6-dihydropyridin-3-yl)phenoxy)ethyl)acetamide] the melting point was 153 °C.
Work on `CC(=O)N(CCOc1ccc(-c2ccc(=O)n(Cc3ccc(Cl)cc3F)c2)cc1)C(C)=O` [6-55] yielded a melting point of 121 °C.
`CC(=O)N(CCCOc1ccc(-c2ccc(=O)n(Cc3ccc(Cl)cc3F)c2)cc1)C(C)=O` [6-56] showed a melting point of 131 °C.
`CC(=O)Nc1cccc(-c2ccc(=O)n(Cc3ccc(Cl)cc3F)c2)c1` [6-57] showed a melting point of 194 °C.
